Reference: paper PMC1904258, “X-ray Structures of the Signal Recognition Particle Receptor Reveal Targeting Cycle Intermediates” (PLoS ONE, 2007)

Molecular target: T1, FtsY (T. aquaticus) (Thermus aquaticus, UniProt P83749)
T1 construct: FtsY retaining N-terminal helix N1 (naturally lacks A-domain), NG domains; expressed in E. coli BL21(DE3) from pET21; apo/GMPPNP NCS dimer in crystal
T1 sequence (P83749 1-304): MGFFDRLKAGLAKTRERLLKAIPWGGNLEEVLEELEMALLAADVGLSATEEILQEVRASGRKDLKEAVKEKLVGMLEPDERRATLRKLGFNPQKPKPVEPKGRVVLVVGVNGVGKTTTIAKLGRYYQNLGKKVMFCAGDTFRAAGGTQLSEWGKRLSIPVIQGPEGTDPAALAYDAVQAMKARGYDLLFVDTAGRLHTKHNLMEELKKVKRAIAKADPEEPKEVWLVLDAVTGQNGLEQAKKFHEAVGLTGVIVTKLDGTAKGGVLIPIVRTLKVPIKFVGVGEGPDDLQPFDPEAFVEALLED
Assay: X-ray crystal structure of complex ([…] and […] Å)
Format: binding
Settings: non-hydrolysable GTP analogue; form I (F1, 2.2 Å) grown with MgCl2, no ordered Mg2+; form II (F2, 2.3 Å) without Mg2+; GTPase active site, one monomer of the dimer

Compound: Nc1nc2c(ncn2[C@@H]2O[C@H](COP(=O)(O)OP(=O)(O)NP(=O)(O)O)[C@@H](O)[C@H]2O)c(=O)[nH]1 [GMPPNP]
- X-ray crystal structure of complex (2.2 and 2.3 Å): one monomer in apo-FtsY and the other FtsY monomer bound with GMPPNP
